Source: US10717734B2, “Indole and azaindole haloallylamine derivative inhibitors of lysyl oxidases and uses thereof” (PHARMAXIS LTD., priority 2016, dated 2020)
Counter-ions that a name gives are not always drawn.

Legend:
[1] = test system: primary fibroblasts from confirmed cases of IPF (fibroblastic foci); experiment: Collagen cross-link formation in in vitro fibroblastic foci model of IPF; assay type: cell-based, human; settings: TGF-β1 stimulated foci, six weeks culture with inhibitor
From the text: Reduction of Collagen Cross-Link Formation in an in vitro Fibroblastic Foci Model of IPF
The lung tissue of patients with idiopathic pulmonary fibrosis (IPF) is characterised by dense collections of myofibroblasts and extracellular matrix (ECM) termed ‘fibroblastic foci’. Using a novel in vitro model of fibroblastic foci (Jones et al., AJRCCM 191; 2015:A4912) the formation of lysyl oxidase (LOX) mediated collagen cross-links and the effects of the nonselective LOX inhibitor β-aminopropionitrile (BAPN) as well lysyl oxidase like-2 (LOXL2)-selective inhibitors were investigated.
Cultures of primary fibroblasts were grown out from clinical diagnostic biopsies of fibrotic lung and stored in liquid nitrogen. […]
To quantify collagen cross-links (Robins Biochem Soc Trans 2007; 35(5): 849-852; Saito et al Anal. Biochem. 1997; 253: 26-32; Sims, Avery & Bailey Methods in Molecular Biology 2000; vol 139: 11-26), cultures were treated with potassium borohydride to stabilise the reducible immature cross-links, and hydrolysed in 6N HCl at 100° C. for 16 hr. Total collagen content was assessed by hydroxyproline assay. Immature cross-links were assessed by LC/MS/MS and mature pyridinoline cross-links by ELISA. Cross-link data is expressed as moles of cross-link per mole collagen. […]

Bovine LOX = Bovine LOX (Bos taurus (Bovine), UniProt P33072); experiment: LOX inhibition, peroxidase-coupled Amplex Red amine oxidase assay; assay type: biochemical; settings: 30 min preincubation at 37° C., putrescine substrate
Outline: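 Bovine LOX in 1.2 M urea, 50 mM sodium borate pH 8.2 […]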

Human LOXL2 = Human LOXL2 (Homo sapiens (Human), UniProt Q9Y4K0); experiment: LOXL2 inhibition, peroxidase-coupled Amplex Red amine oxidase assay; assay type: biochemical; settings: 30 min preincubation at 37° C., putrescine substrate
Outline: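 Enzyme preincubated 30 min at 37 °C with compound (11-point curve) in 1.2 M urea, 50 mM borate pH 8.2 plus 1 μM mofegiline and 0.5 mM pargyline; putrescine at twice KM (10 mM for LOXL2), Amplex Red and HRP added. Fluorescence (565/590 nm) read every 2.5 min for 30 min; IC50 from kinetic slopes.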

Recombinant human MAO-B = Recombinant human MAO-B (Homo sapiens (Human), UniProt P27338); experiment: Human recombinant MAO-B inhibition; assay type: biochemical; settings: benzylamine 100 μM
Outline: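 Recombinant human MAO-B (0.06 mg/mL) was the enzyme source, with benzylamine substrate at 100 μM. Otherwise run as for the human SSAO/VAP-1 assay.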

[2] = target: Human recombinant SSAO/VAP-1 (Homo sapiens (Human), UniProt Q16853); experiment: Human recombinant SSAO/VAP-1 amine oxidase inhibition; assay type: biochemical; settings: 30 min preincubation at 37° C., 600 μM benzylamine
Outline: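 Purified SSAO/VAP-1 (residues 34-763, expressed in CHO Lec 8 cells; 0.25 μg/mL) preincubated 30 min at 37° C with compound in 0.1 M sodium phosphate pH 7.4. Reaction mix of 600 μM benzylamine, 120 μM Amplex Red and 1.5 U/mL HRP added; fluorescence (ex 565/em 590 nm) read every 2.5 min for 30 min; IC50 from kinetic slopes over 4-11 point curves.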

[3] = test system: CCl4 induced liver fibrosis; experiment: CCl4 induced liver fibrosis model; assay type: in vivo, rat; settings: 0.1-100 mg/Kg
Protocol: Inhibition of CCl4 Induced Liver Fibrosis
An analysis of the use of LOXL2 inhibitors to treat inflammatory/fibrotic diseases is performed through the use of a CCl4 induced liver fibrosis model. Liver injury is frequently followed by complete parenchymal regeneration due to regenerative potency of hepatocytes. Continuous liver injury due to the administration of CCl4 leads to extracellular matrix accumulation, accompanied by recurrent hepatocyte necrosis, inflammation, and regenerative processes, causing liver fibrosis and consequently liver cirrhosis (see Natsume, M, et al., Attenuated liver fibrosis and depressed serum albumin levels in carbon tetrachloride-treated IL-6-deficient mice. J. Leukoc. Biol., 1999, 66, 601-608 also See Yao, Q, Y, et al. Inhibition by curcumin of multiple sites of the transforming growth factor-beta1 signalling pathway ameliorates the progression of liver fibrosis induced by carbon tetrachloride in rats. BMC Complement Altern Med. 2012 Sep. 16; 12(1):156.)
Rats are administered orally with CCl4 at a concentration of 0.25 μL/g in olive oil, 3 times per week for 6 weeks. Compound 22 is given 0.1-100 mg/Kg throughout the period of the experimental procedure or only 3 weeks after CCl4 administration and then throughout the entire study. […]

Chain of Recombinant human MAO-B (P27338 whole entry): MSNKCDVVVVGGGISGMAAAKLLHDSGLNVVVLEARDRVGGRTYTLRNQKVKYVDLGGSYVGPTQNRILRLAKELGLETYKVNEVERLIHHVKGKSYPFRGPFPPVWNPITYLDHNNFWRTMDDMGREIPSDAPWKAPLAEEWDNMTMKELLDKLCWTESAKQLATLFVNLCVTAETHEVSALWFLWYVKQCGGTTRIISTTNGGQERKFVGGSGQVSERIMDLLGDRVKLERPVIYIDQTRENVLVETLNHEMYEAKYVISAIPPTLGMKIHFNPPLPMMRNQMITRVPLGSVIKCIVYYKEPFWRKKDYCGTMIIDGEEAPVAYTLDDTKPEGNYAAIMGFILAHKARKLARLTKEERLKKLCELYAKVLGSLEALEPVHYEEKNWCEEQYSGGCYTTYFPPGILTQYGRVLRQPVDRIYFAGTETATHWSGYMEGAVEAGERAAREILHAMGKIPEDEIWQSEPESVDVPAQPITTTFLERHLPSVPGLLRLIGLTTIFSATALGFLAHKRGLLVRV
Chain of Human recombinant SSAO/VAP-1 (Q16853 34-763): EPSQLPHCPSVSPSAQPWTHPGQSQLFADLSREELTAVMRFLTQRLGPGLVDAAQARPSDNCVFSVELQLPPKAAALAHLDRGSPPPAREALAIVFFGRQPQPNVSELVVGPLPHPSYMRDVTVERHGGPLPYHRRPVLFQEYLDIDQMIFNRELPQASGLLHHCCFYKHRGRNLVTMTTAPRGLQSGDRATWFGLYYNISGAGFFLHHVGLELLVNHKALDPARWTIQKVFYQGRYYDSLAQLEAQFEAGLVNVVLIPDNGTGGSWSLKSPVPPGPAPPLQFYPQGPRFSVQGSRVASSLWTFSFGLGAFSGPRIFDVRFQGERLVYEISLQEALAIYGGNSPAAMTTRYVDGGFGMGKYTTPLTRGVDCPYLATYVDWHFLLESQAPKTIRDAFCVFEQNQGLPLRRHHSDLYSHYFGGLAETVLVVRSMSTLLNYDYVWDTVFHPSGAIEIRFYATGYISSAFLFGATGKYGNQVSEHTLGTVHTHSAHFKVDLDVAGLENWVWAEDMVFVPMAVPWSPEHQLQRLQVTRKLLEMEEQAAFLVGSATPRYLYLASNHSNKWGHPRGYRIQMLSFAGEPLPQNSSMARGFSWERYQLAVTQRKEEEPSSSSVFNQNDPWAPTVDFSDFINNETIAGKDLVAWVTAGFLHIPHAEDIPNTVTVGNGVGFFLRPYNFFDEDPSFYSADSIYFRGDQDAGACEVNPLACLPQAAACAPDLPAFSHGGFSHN
Chain of Human LOXL2 (Q9Y4K0 26-774): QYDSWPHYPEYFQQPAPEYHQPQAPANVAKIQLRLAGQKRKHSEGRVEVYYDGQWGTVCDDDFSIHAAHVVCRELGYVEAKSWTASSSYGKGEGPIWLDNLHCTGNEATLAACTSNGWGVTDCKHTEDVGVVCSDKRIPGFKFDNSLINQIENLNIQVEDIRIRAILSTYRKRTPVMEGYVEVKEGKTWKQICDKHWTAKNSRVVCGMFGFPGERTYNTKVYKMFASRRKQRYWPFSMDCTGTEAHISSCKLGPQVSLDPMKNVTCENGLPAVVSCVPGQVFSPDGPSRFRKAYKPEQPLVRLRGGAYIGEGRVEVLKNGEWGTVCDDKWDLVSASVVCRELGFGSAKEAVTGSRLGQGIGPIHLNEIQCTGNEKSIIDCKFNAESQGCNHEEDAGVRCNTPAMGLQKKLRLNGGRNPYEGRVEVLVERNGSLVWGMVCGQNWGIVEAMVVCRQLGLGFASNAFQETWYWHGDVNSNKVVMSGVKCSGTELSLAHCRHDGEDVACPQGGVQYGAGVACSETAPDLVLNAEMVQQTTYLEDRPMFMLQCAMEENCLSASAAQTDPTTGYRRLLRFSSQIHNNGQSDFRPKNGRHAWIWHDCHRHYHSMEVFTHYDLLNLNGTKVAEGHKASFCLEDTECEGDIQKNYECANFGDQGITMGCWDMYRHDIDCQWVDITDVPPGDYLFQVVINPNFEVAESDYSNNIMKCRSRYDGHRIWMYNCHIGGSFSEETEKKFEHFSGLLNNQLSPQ
Chain of Bovine LOX (P33072 170-418): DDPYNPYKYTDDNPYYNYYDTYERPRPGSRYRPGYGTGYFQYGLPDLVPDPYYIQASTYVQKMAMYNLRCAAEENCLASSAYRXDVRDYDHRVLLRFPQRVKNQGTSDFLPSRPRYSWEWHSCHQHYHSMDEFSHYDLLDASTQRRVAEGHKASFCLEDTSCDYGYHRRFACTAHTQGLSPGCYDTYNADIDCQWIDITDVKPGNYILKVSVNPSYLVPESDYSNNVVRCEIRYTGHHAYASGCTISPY

N#CCCN [BAPN, β-aminopropionitrile] was tested, and the collagen cross-link formation [1] was “reduced cross-link formation in a concentration dependent manner”.
CC(C)c1c(Cc2ccc(S(C)(=O)=O)nc2)c2ncccc2n1C/C(F)=C/CN [Compound 22, trihydrochloride] gave an IC50 (Bovine LOX) greater than 300 nM, an IC50 (Human LOXL2) of less than 300 nM and an IC50 (Recombinant human MAO-B) greater than 3000 nM. The IC50 [2] was greater than 3000 nM, the “inhibition of liver collagen by hydroxyproline analysis” value ([3]; CCl4 model, statistically significant) was greater than 30% and the “reduction of liver fibrosis by sirius red staining with quantification” value ([3]; rats, oral CCl4 3 times per week for 6 weeks, versus vehicle-treated group) was “up to 50%”.
For Cc1ncc2c(n1)c(Cc1ccc(S(=O)(=O)N(C)C)cc1)c(C)n2C/C(F)=C/CN [Compound 39, (Z)-4-((5-(4-amino-2-fluorobut-2-en-1-yl)-2,6-dimethyl-5H-pyrrolo[3,2-d]pyrimidin-7-yl)methyl)-N,N-dimethylbenzenesulfonamide dihydrochloride], the IC50 (Bovine LOX) was greater than 300 nM, the IC50 (Human LOXL2) was less than 300 nM and the IC50 (Recombinant human MAO-B) was greater than 3000 nM. For the same compound, the IC50 [2] was greater than 3000 nM.
Cc1ccc2c(n1)c(CCc1ccc(S(C)(=O)=O)cc1)c(C)n2C/C(F)=C/CN [Compound 40, (Z)-4-(2,5-dimethyl-3-(4-(methylsulfonyl)phenethyl)-1H-pyrrolo[3,2-b]pyridin-1-yl)-3-fluorobut-2-en-1-amine dihydrochloride] gave an IC50 (Bovine LOX) greater than 300 nM, an IC50 (Human LOXL2) of less than 300 nM and an IC50 (Recombinant human MAO-B) greater than 3000 nM. The IC50 [2] was greater than 3000 nM.
With CC(C)c1c(Cc2ccc(S(=O)(=O)C(C)C)nc2)c2ncccc2n1C/C(F)=C/CN [Compound 41, (Z)-3-fluoro-4-(2-isopropyl-3-((6-(isopropylsulfonyl)pyridin-3-yl)methyl)-1H-pyrrolo[3,2-b]pyridin-1-yl)but-2-en-1-amine hydrochloride] the IC50 (Bovine LOX) was greater than 300 nM, the IC50 (Human LOXL2) was less than 300 nM and the IC50 (Recombinant human MAO-B) was greater than 3000 nM. For the same compound, the IC50 [2] was greater than 3000 nM.
CC(C)c1c(C(O)c2ccc(S(C)(=O)=O)nc2)c2ncccc2n1C/C(F)=C/CN (centres unmarked) [Compound 42, (Z)-(1-(4-amino-2-fluorobut-2-en-1-yl)-2-isopropyl-1H-pyrrolo[3,2-b]pyridin-3-yl)(6-(methylsulfonyl)pyridin-3-yl)methanol dihydrochloride] showed an IC50 (Bovine LOX) greater than 300 nM, an IC50 (Human LOXL2) of less than 300 nM and an IC50 (Recombinant human MAO-B) greater than 3000 nM. For the same compound, the IC50 [2] was greater than 3000 nM.
